Results from US8562945B2, “Technetium- and rhenium-bis(heteroaryl) complexes and methods of use thereof” (Molecular Insight Pharmaceuticals, Inc., priority 2008, dated 2013).

Experiment: Rat tissue distribution of 99mTc complexes of example ligands (Table 6)
Type: in vivo, Sprague-Dawley Rats
Details: 99mTc complex
Procedure: Rat Tissue Distribution Studies. The distribution and pharmacokinetics of selected ^99mTc-SAAC complexes were evaluated in normal male Sprague Dawley rats (180-200 grams) administered via the tail vein as a bolus injection (approximately 10 μCi/rat) in a constant volume of 0.1 ml. The animals (n=5 per time point) were euthanized by asphyxiation with carbon dioxide at 5, 30, 60, and 120 min post injection. Tissues (blood, heart, lungs, liver, spleen, kidneys, adrenals, stomach, intestines (with contents), testes, skeletal muscle, bone and brain) were dissected, excised, weighed wet, and counted in an automated γ-counter (LKB Model 1282, Wallac Oy, Finland). Tissue time-radioactivity levels expressed as percent injected dose per gram of tissue (% ID/g) was determined.
^99mTc Complexes of various example ligands in Sprague-Dawley Rats.

SMILES | Blood tissue distribution (5 min) [% ID/g] | Blood tissue distribution (30 min) [% ID/g] | Blood tissue distribution (60 min) [% ID/g] | Blood tissue distribution (120 min) [% ID/g] | GI tissue distribution (5 min) [% ID/g] | GI tissue distribution (30 min) [% ID/g] | GI tissue distribution (60 min) [% ID/g] | GI tissue distribution (120 min) [% ID/g] | Kidney tissue distribution (5 min) [% ID/g] | Kidney tissue distribution (30 min) [% ID/g] | Kidney tissue distribution (60 min) [% ID/g] | Kidney tissue distribution (120 min) [% ID/g] | Liver tissue distribution (5 min) [% ID/g] | Liver tissue distribution (30 min) [% ID/g] | Liver tissue distribution (60 min) [% ID/g] | Liver tissue distribution (120 min) [% ID/g] | Sk. Muscle tissue distribution (5 min) [% ID/g] | Sk. Muscle tissue distribution (30 min) [% ID/g] | Sk. Muscle tissue distribution (60 min) [% ID/g] | Sk. Muscle tissue distribution (120 min) [% ID/g]
N[C@@H](CCCCN(Cc1nccn1CC(=O)O)Cc1nccn1CC(=O)O)C(=O)O (stereo in doubt) [Compound 2, 2,2′-(2,2′-(5-amino-5-carboxypentylazanediyl)bis(methylene)bis(1H-imidazole-2,1-diyl))diacetic acid] | 1.33 ± 0.2 | 1.14 ± 0.23 | 0.86 ± 0.17 | 0.72 ± 0.12 | 0.15 ± 0.02 | 0.44 ± 0.08 | 0.76 ± 0.31 | 1.22 ± 0.27 | 6.85 ± 1.85 | 10.7 ± 2.3 | 16.8 ± 4.8 | 10.2 ± 2.5 | 0.52 ± 0.07 | 0.55 ± 0.07 | 0.42 ± 0.08 | 0.39 ± 0.07 | 0.29 ± 0.04 | 0.21 ± 0.06 | 0.16 ± 0.03 | 0.14 ± 0.02
CCOCCn1ccnc1CN(CCCC[C@H](N)C(=O)O)Cc1nccn1CCOCC (stereo in doubt) [Compound 4, 2-amino-6-(bis((1-(2-ethoxyethyl)-1H-imidazol-2-yl)methyl)amino)hexanoic acid] | 0.83 ± 0.09 | 0.09 ± 0.02 | 0.02 ± 0 | 0.01 ± 0 | 0.57 ± 0.13 | 2.33 ± 0.61 | 3.62 ± 0.3 | 2.96 ± 0.44 | 6.86 ± 0.86 | 12.13 ± 2.36 | 12.54 ± 1 | 12.54 ± 0.81 | 1.61 ± 0.32 | 0.35 ± 0.08 | 0.28 ± 0.07 | 0.14 ± 0.02 | 0.13 ± 0.02 | 0.02 ± 0.01 | 0.01 ± 0 | 0.01 ± 0
COC(Cn1ccnc1CN(CCCC[C@H](N)C(=O)O)Cc1nccn1CC(OC)OC)OC (stereo in doubt) [Compound 6, 2-amino-6-(bis((1-(2,2-dimethoxyethyl)-1H-imidazol-2-yl)methyl)amino)hexanoic acid] | 1.46 ± 0.21 | 0.47 ± 0.05 | 0.14 ± 0.04 | 0.04 ± 0.01 | 0.34 ± 0.12 | 1.05 ± 0.2 | 1.39 ± 0.24 | 1.21 ± 0.27 | 13.82 ± 2.81 | 34.1 ± 5.59 | 40.25 ± 5.17 | 33.18 ± 2.75 | 1.06 ± 0.34 | 0.45 ± 0.04 | 0.24 ± 0.04 | 0.16 ± 0.02 | 0.3 ± 0.04 | 0.1 ± 0.01 | 0.04 ± 0.01 | 0.01 ± 0

Continued, values first:

Blood tissue distribution (5 min) [% ID/g] | Blood tissue distribution (30 min) [% ID/g] | Blood tissue distribution (60 min) [% ID/g] | Blood tissue distribution (120 min) [% ID/g] | GI tissue distribution (5 min) [% ID/g] | GI tissue distribution (30 min) [% ID/g] | GI tissue distribution (60 min) [% ID/g] | GI tissue distribution (120 min) [% ID/g] | Kidney tissue distribution (5 min) [% ID/g] | Kidney tissue distribution (30 min) [% ID/g] | Kidney tissue distribution (60 min) [% ID/g] | Kidney tissue distribution (120 min) [% ID/g] | Liver tissue distribution (5 min) [% ID/g] | Liver tissue distribution (30 min) [% ID/g] | Liver tissue distribution (60 min) [% ID/g] | Liver tissue distribution (120 min) [% ID/g] | Sk. Muscle tissue distribution (5 min) [% ID/g] | Sk. Muscle tissue distribution (30 min) [% ID/g] | Sk. Muscle tissue distribution (60 min) [% ID/g] | Sk. Muscle tissue distribution (120 min) [% ID/g] | SMILES
1.18 ± 0.18 | 0.28 ± 0.03 | 0.11 ± 0.02 | 0.03 ± 0.01 | 0.15 ± 0.02 | 0.45 ± 0.11 | 0.84 ± 0.1 | 1.12 ± 0.37 | 6.65 ± 2.06 | 22.2 ± 3.9 | 25.4 ± 1.7 | 25.5 ± 3.4 | 0.8 ± 0.28 | 1.03 ± 0.21 | 0.86 ± 0.16 | 0.74 ± 0.14 | 0.22 ± 0.03 | 0.06 ± 0.02 | 0.03 ± 0.01 | 0.01 ± 0 | Cn1ccnc1CN(CCCC[C@H](N)C(=O)O)Cc1nccn1C [Compound 13, (S)-2-amino-6-(bis((1-methyl-1H-imidazol-2-yl)methyl)amino)hexanoic acid]
1.03 ± 0.14 | 0.45 ± 0.1 | 0.22 ± 0.02 | 0.09 ± 0.01 | 0.16 ± 0.01 | 1.96 ± 0.49 | 1.64 ± 0.64 | 2.53 ± 0.7 | 10.79 ± 1.97 | 17.05 ± 3.17 | 9.52 ± 2.54 | 3.94 ± 0.43 | 0.95 ± 0.14 | 3.02 ± 0.59 | 0.98 ± 0.22 | 0.44 ± 0.14 | 0.21 ± 0.05 | 0.09 ± 0.02 | 0.05 ± 0.01 | 0.02 ± 0 | Cn1ccnc1CN(CCCC[C@H](N)C(=O)O)CC(=O)O [Compound 18, (S)-2-amino-6-((carboxymethyl)((1-methyl-1H-imidazol-2-yl)methyl)amino) hexanoic acid]
